Experimental findings from patent publication US10626140B2, “Prodrugs of 17β-HSD1-inhibitors” (FORENDO PHARMA LTD, priority 2014, dated 2020) are described below.

In general, solubility refers to the dissolved amount per volume that the medium holds. What is called inhibition is how much of the control response was suppressed.

A short description of data set [1]: Aqueous solubility test. It is filed as physicochemical. As to conditions: for solubility: thermodynamic from solid. As for the experimental part: The pH of the mixtures was held constant during the study. Excess amounts or a known amount of each component are added to 1 or 0.5 ml of buffer solution and the mixtures were stirred at rt for 48 hours or less, filtered (0.45 um Millipore) and analyzed by HPLC.

A short description of data set [2]: Metabolic stability assay. It is filed as in vitro ADME. As to conditions: human liver homogenate or microsomes. As for the experimental part:
The in vitro metabolic stability of the parent compounds was determined for exemplified compounds using human liver microsome and homogenate incubations. The incubation time points used with or without appropriate cofactors were 0 min and 60 min. Samples were collected at both time points and substrates were detected using LC/PDA/TOF-MS. In vitro metabolic stability (% remaining after 60 min in human liver homogenate or microsomes) of the compounds were calculated and the results are summarized in Table 4.

For data set [3], the target named is T1, recombinant human 17β-HSD2 (Homo sapiens, UniProt P37059).
T1 construct: made in house; host or cells: Sd9 (Sf9) insect cells, baculovirus (Bac to Bac Expression System)
T1 sequence (P37059 1-387): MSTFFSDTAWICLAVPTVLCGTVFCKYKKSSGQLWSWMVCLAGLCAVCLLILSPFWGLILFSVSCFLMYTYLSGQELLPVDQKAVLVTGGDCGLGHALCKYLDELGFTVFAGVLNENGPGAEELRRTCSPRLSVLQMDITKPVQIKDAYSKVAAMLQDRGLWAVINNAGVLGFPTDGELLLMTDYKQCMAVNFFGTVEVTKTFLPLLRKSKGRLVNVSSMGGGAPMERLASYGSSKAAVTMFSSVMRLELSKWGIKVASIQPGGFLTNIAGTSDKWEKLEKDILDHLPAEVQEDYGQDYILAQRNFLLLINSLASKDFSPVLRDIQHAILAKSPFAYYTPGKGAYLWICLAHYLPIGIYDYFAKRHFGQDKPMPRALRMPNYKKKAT
Put plainly: Inhibition of recombinant human 17β-HSD2. As to conditions: inhibitor 1 μM; 50 nM estradiol, 1 mM NADH, 30 min at RT. It is filed as biochemical. The procedure: 17β-HSD2 Production and Isolation:
Similarly to 17β-HSD1 the Recombinant baculovirus was generated by the “Bac to Bac Expression System” (Invitrogen). Recombinant bacmid was transfected to Sd9 insect cells using “Cellfectin Reagent” (Invitrogen). 60 h later cells were harvested and supernatant were fractionated by the following protocol: • cells were dissolved into 40 ml of A-buffer (40 mM TRIS, pH8.0, 20% glycerol, 20 μM NAD, 0.4 mM PMSF, 150 mM NaCl, 0.5% dodecyl-β-maltoside+protease inhibitor cocktail) • cells were sonicated • lysate was incubated on ice for 15 min • lysate was centrifuged 5000 rpm 15 min, +4° C. • centrifugation of the supernatant 180 000 g 30 min, +4° C. • pellet was dissolved into 8 ml of A-buffer • not resuspended material was removed by centrifugation 5000 rpm 15 min, +4° C. • the clear supernatant was divided into 100 μl aliquots and were stored frozen until determination of enzymatic activity.
The amount of 17β-HSD2 was analysed by immunoblotting and total protein concentration of each extract batch was determined.
Assay—Inhibition of Recombinant Human 17β-HSD2:
Protein homogenate (4 μg/ml) was incubated in 20 mM KH2PO4 pH 8.5 with 50 nM estradiol (including 800 000 cpm/ml of ^3H-estradiol) and 1 mM […] for 30 min at RT, in the presence of the potential inhibitor at concentrations 1 μM or 0.1 μM. Inhibitor stock solutions were prepared in DMSO. Final concentration of DMSO was adjusted to 1% in all samples. The enzyme reaction was stopped by addition of 10% trichloroacetic acid (final concentration). Samples were centrifuged in a microtiter plate at 4000 rpm for 10 min. Supernatants were applied to reverse phase HPLC on a Waters Symmetry C18 column, equipped with a Waters Sentry Guard column. […] Radioactivity was monitored in the eluate by a Packard Flow Scintillation Analyzer. Total radioactivity for estrone and estradiol were determined in each sample and percent conversion of estradiol to estrone was calculated according to the following formula:
(§1) [formula] Percent inhibition was calculated flowingly: % inhibition=100−% conversion

The target of data set [4] is T2, recombinant human 17β-HSD1 (Homo sapiens, UniProt P14061).
T2 construct: made in house; host or cells: Sd9 (Sf9) insect cells, baculovirus (Bac to Bac Expression System)
T2 sequence (P14061 1-328): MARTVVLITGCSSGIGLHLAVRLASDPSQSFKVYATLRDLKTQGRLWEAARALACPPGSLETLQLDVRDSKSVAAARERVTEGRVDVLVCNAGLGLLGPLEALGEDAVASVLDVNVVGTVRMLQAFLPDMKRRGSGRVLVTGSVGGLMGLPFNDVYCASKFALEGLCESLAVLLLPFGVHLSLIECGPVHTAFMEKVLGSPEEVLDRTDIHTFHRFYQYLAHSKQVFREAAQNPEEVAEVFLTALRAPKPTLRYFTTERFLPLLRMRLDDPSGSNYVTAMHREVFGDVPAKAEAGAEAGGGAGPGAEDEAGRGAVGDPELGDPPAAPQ
Kind of data set: Inhibition of recombinant human 17β-HSD1. The format is biochemical. As to conditions: inhibitor 1 μM; 30 nM estrone, 1 mM NADPH, 30 min at RT; read-out: 17β-HDS1 Inhibition % at 1 μM. The procedure: 17β-HSD1 Production and Isolation:
Recombinant baculovirus was generated by the “Bac to Bac Expression System” (Invitrogen). Recombinant bacmid was transfected to Sd9 insect cells using “Cellfectin Reagent” (Invitrogen). 60 h later cells were harvested; the microsomal fraction was isolated as described by Puranen, T. J., Poutanen, M. H., Peltoketo, H. E., Vihko, P. T. and Vihko, R. K. (1994) Site-directed mutagenesis of the putative active site of human 17β-hydroxysteroid dehydrogenase type 1. Biochem. J. 304: 289-293. Aliquots were stored frozen until determination of enzymatic activity.
Assay—Inhibition of Recombinant Human 17β-HSD1:
Protein homogenate (0.1 μg/ml) was incubated in 20 mM KH2PO4 pH 7.4 with 30 nM estrone (including 800 000 cpm/ml of ^3H-estrone) and 1 mM NADPH for 30 min at RT, in the presence of the potential inhibitor at concentrations 1 μM or 0.1 μM. Inhibitor stock solutions were prepared in DMSO. Final concentration of DMSO was adjusted to 1% in all samples. The enzyme reaction was stopped by addition of 10% trichloroacetic acid (final concentration). Samples were centrifuged in a microtiter plate at 4000 rpm for 10 min. Supernatants were applied to reverse phase HPLC on a Waters Symmetry C18 column, equipped with a Waters Sentry Guard column. Isocratic HPLC runs were performed at RT at a flow rate of 1 ml/min in acetonitrile:water 48:52 as running solvent. Radioactivity was monitored in the eluate by a Packard Flow Scintillation Analyzer. Total radioactivity for estrone and estradiol were determined in each sample and percent conversion of estrone to estradiol was calculated according to the following formula:
as §1

Entries after “also recorded” stand apart in the source; their conditions may differ. Where two headings read alike, the source gives them in different places.

Regarding `CO/N=C1\C[C@@H](CCC(=O)Nc2ncc(C)s2)C2C3CCc4cc(OP(=O)(O)O)c(C(C)(C)C)cc4C3CC[C@]12C` (stereo partly drawn) [Compound 1], the “aqueous solubility (in words)” value in data set [1] (Table 5) was “improved aqueous solubility”.
Regarding `CO/N=C1\C[C@@H](CCC(=O)Nc2ncc(C)s2)C2C3CCc4cc(OP(=O)([O-])[O-])c(C(C)(C)C)cc4C3CC[C@]12C.[Na+].[Na+]` (stereo partly drawn) [Compound 1a], in data set [1] (Table 5, disodium salt), the “aqueous solubility (in words)” value was “improved aqueous solubility; also recorded: significant aqueous solubility”. The “Aqueous solubility, buffer at pH 7.4” value in data set [1] (buffer at pH 7.4, rt) was “over 32 mg/ml”.
Take `CO/N=C1\C[C@@H](CCC(=O)Nc2ncc(C)s2)C2C3CCc4cc(OC(=O)CN(C)C)c(C(C)(C)C)cc4C3CC[C@]12C.Cl` (stereo partly drawn) [Compound 4a, (13S,15R)-2-(tert-butyl)-17[(E)-methoxyimino]-13-methyl-15-(3-((5-methylthiazol-2-yl)amino)-3-oxopropyl)-7,8,9,11,12,13,14,15,16,17-decahydro-6H-cyclopenta[a]phenanthren-3-yl dimethylglycinate hydrochloride]: the “aqueous solubility (in words)” value in data set [1] (Table 5) is “improved aqueous solubility”. The solubility in data set [1] (aqueous buffer, buffer at pH 7.4, rt, read-out: Aqueous solubility, buffer at pH 7.4) amounted to 7.99 µg/mL.
`CO/N=C1\C[C@@H](CCC(=O)Nc2ncc(C)s2)C2C3CCc4cc(OCOP(=O)(O)O)c(C(C)(C)C)cc4C3CC[C@]12C` (stereo partly drawn) [Compound 15, (((13S,15R)-2-(tert-butyl)-17[(E)-methoxyimino]-13-methyl-15-(3-((5-methylthiazol-2-yl)amino)-3-oxopropyl)-7,8,9,11,12,13,14,15,16,17-decahydro-6H-cyclopenta[a]phenanthren-3-yl)oxy)methyl dihydrogen phosphate]: in data set [1], the “aqueous solubility (in words)” value is “significant aqueous solubility”.
Take `CO/N=C1\C[C@@H](CCC(=O)Nc2ncc(C)s2)C2C3CCc4cc(OCOP(=O)(O)O)c(C(C)(C)C)cc4C3CC[C@]12C.[Na].[Na]` (stereo partly drawn) [Compound 15a, (((13S,15R)-2-(tert-butyl)-17[(E)-methoxyimino]-13-methyl-15-(3-((5-methylthiazol-2-yl)amino)-3-oxopropyl)-7,8,9,11,12,13,14,15,16,17-decahydro-6H-cyclopenta[a]phenanthren-3-yl)oxy)methyl dihydrogen phosphate disodium salt]: in data set [1] (Table 5), the “aqueous solubility (in words)” value is given as “improved aqueous solubility”. Moreover, in data set [1] (buffer solution, aqueous buffer, buffer at pH 7.4, rt, read-out: Aqueous solubility, buffer at pH 7.4), the solubility is over 30000 µg/mL.
`Cc1cnc(NC(=O)CC[C@@H]2CC(=O)[C@@]3(C)CCC4c5ccc(O)cc5CCC4C23)s1` (stereo partly drawn) [VII, reference compound]: the “In vitro metabolic stability, % remaining after 60 min” value in data set [2] came to 13%.
On to `CO/N=C1\C[C@@H](CCC(=O)Nc2ncc(C)s2)C2C3CCc4cc(O)c(C(C)(C)C)cc4C3CC[C@]12C` (stereo partly drawn) [VIV-1, 3-{(13S,15R)-2-tert-Butyl-3-hydroxy-17-[(E)-methoxyimino]-13-methyl-7,8,9,11,12,13,14,15,16,17-decahydro-6H-cyclopenta[a]phenanthren-15-yl}-N-(5-methylthiazol-2-yl) propanamide], for which, in data set [1] (pH 7.4, aqueous buffer), the solubility is under 0.52 µg/mL. In addition, the “In vitro metabolic stability, % remaining after 60 min” value in data set [2] is 100%. Besides, the figures for the inhibition at 1 µM in data set [3] and in data set [4] were 14% and 86%, respectively.
For the molecule `Cc1cnc(NC(=O)CC[C@@H]2C/C(=N\O)[C@@]3(C)CCC4c5cc(C(C)(C)C)c(O)cc5CCC4C23)s1` (stereo partly drawn) [VIV-3, 3-{(13S,15R)-2-tert-Butyl-3-hydroxy-17-[(E)-hydroxyimino]-13-methyl-7,8,9,11,12,13,14,15,16,17-decahydro-6H-cyclopenta[a]phenanthren-15-yl}-N-(5-methylthiazol-2-yl)propanamide], the “In vitro metabolic stability, % remaining after 60 min” value in data set [2] was 100%. The inhibition at 1 µM came to 41% in data set [3] and 95% in data set [4].
Take `CCO/N=C1\C[C@@H](CCC(=O)Nc2ncc(C)s2)C2C3CCc4cc(O)c(C(C)(C)C)cc4C3CC[C@]12C` (stereo partly drawn) [VIV-4, 3-{(13S,15R)-2-tert-Butyl-17-[(E)-ethoxyimino]-3-hydroxyl-13-methyl-7,8,9,11,12,13,14,15,16,17-decahydro-6H-cyclopenta[a]phenanthren-15-yl}-N-(5-methylthiazol-2-yl)propanamide]: the inhibition at 1 µM in data set [3] is 8%; in data set [4], 89%.
